Experimental data reported in EP0455560A2, “Use of N-dichloroacetyl lysogangliosides for the selective modulation of the expression and function of CD4 determinants on the cell surface” (FIDIA S.p.A., priority 1990, dated 1991).

Tests used:
Type in all cases: cell-based
CD₃ = test: Mean fluorescence intensity of human lymphocytes stained with anti CD3 Mab after incubation with the compound in the presence of serum; conditions: 37°C, one hour
Method: (§1) Human lymphocytes were incubated at various concentrations of the modified ganglioside N-dichloroacetyl lyso GM₁. The cells were stained using monoclonal antibodies (Mab) specific for CD₄, CD₈, CD₃ (T₄, T₈, T₃ Coulter Clone, Coulter Electronics, Hialeah, Florida, USA) and OKT₄ (Ortho Diagnostics, Raritan, New Jersey, USA), these monoclonal antibodies being coupled to fluorescein. By measuring the mean fluorescence intensity (MFI) of the labelled cell population at each concentration of N-dichloroacetyl lyso GM₁, it was possible to quantify how much N-dichloroacetyl lyso GM₁ is necessary to produce 50% inhibition of the fluorescence (I₅₀). The I₅₀ value for […] lymphocytes was 5 µM. The concentration of the composition of N-dichloroacetyl lyso GM₁ at which the fluorescence intensity measurement was 0% was resolved experimentally.
(§2) Specifically, human cells were incubated with saline solution at various concentrations of N-dichloroacetyl lyso GM₁ in the presence of serum at 37°C for one hour. The cells were then washed, incubated with suitable monoclonal antibodies, fixed with 1% formalin and analyzed by MFI after excitation at […] laser length.

CD₄ [1] = biological target: T1, CD₄ (Homo sapiens, UniProt P01730); test: Percentage of CD4 still expressed in Molt 3 cells after incubation in the presence of fetal calf serum; design: percentage of CD₄ still expressed in the Molt 3 cells after incubation; endogenous in cells; host or cells: Molt 3 cells; conditions: for percentage of CD₄ still expressed in the Molt 3 cells: 60 minutes, 37°C, 84% without agent; for effect of serum concentration on the modulating action on the CD₄ receptor: conclusion in words from Table 3, FCS 1% to 5%
Method: Molt 3 cells (5x10⁶) were incubated with different concentrations of N-dichloroacetyl lyso GM₁ (from 1 µg/ml to 125 µg/ml) for 60 minutes at 37°C in the presence of different concentrations of fetal calf serum (FCS) (from 1% to 5%). After incubation the percentage of CD₄ expressed was shown by a specific Mab for CD₄ (T₄ Coulter Clone, Coulter Electronics, Hialeah, Florida, USA).
As a positive control, an experiment with the monosialoganglioside GM₁ was carried out under the same experimental conditions as reported for N-dichloroacetyl lyso GM₁.
The CD₄ expressed in the absence of the chemical agents during the experiment was 84%.

CD₄ [2] = biological target: T1, CD₄; test: Mean fluorescence intensity of human lymphocytes stained with anti CD4 Mab after incubation with the compound in the presence of serum; design: endogenous in cells; host or cells: human lymphocytes; conditions: for Mean fluorescence intensity (% of positive control): anti CD4 Mab, serum, 37°C, one hour
Method: as §1, §2

CD₄ [3] = biological target: T1, CD₄; test: Percentage of CD4 still expressed in Molt 3 cells after incubation in the presence of BMS serum substitute; design: percentage of CD₄ still expressed in the Molt 3 cells after incubation; endogenous in cells; host or cells: Molt 3 cells; conditions: 60 minutes, 37°C, 89% without agent
Method: Molt 3 cells (5x10⁶) were incubated with various concentrations of N-dichloroacetyl lyso GM₁ (from 1 µg/ml to 250 µg/ml) for 60 minutes at 37°C in the presence of BMS (BMS Serum Substitute, Biochrom. Kg. Seromed, Berlin, Germany). After incubation the percentage of CD₄ expressed was shown by a specific Mab for CD₄ (T₄ Coulter Clone, Coulter Electronics, Hialeah, Florida, USA). For a positive control, an experiment-was carried out with monosialoganglioside GM₁ under the same experimental conditions as reported for N-dichloroacetyl lyso GM₁.
Table 2 reports the percentage of CD₄ still expressed in the Molt 3 cells after incubation with different chemical molecules at different concentrations, as described in Example 1. The CD₄ expressed in the absence of the chemical agents during the experiment was 89%.

| Substance | percentage of CD₄ still expressed in the Molt 3 cells (CD₄ [1]; 1μg/ml, FCS 1%) [%] | percentage of CD₄ still expressed in the Molt 3 cells (CD₄ [1]; 1μg/ml, FCS 2%) [%] | percentage of CD₄ still expressed in the Molt 3 cells (CD₄ [1]; 1μg/ml, FCS 5%) [%] | percentage of CD₄ still expressed in the Molt 3 cells (CD₄ [1]; 25μg/ml, FCS 1%) [%] | percentage of CD₄ still expressed in the Molt 3 cells (CD₄ [1]; 25μg/ml, FCS 2%) [%] | percentage of CD₄ still expressed in the Molt 3 cells (CD₄ [1]; 25μg/ml, FCS 5%) [%] | percentage of CD₄ still expressed in the Molt 3 cells (CD₄ [1]; 75μg/ml, FCS 1%) [%] | percentage of CD₄ still expressed in the Molt 3 cells (CD₄ [1]; 75μg/ml, FCS 2%) [%] | percentage of CD₄ still expressed in the Molt 3 cells (CD₄ [1]; 75μg/ml, FCS 5%) [%] | percentage of CD₄ still expressed in the Molt 3 cells (CD₄ [1]; 125μg/ml, FCS 1%) [%] | percentage of CD₄ still expressed in the Molt 3 cells (CD₄ [1]; 125μg/ml, FCS 2%) [%] | percentage of CD₄ still expressed in the Molt 3 cells (CD₄ [1]; 125μg/ml, FCS 5%) [%] | effect of serum concentration on the modulating action on the CD₄ receptor (CD₄ [1]) | percentage of CD₄ still expressed in the Molt 3 cells (CD₄ [3]; 1μg/ml) [%] | percentage of CD₄ still expressed in the Molt 3 cells (CD₄ [3]; 5μg/ml) [%] | percentage of CD₄ still expressed in the Molt 3 cells (CD₄ [3]; 25μg/ml) [%] | percentage of CD₄ still expressed in the Molt 3 cells (CD₄ [3]; 125μg/ml) [%] | further results |
| --- | --- | --- | --- | --- | --- | --- | --- | --- | --- | --- | --- | --- | --- | --- | --- | --- | --- | --- |
| N-dichloroacetyl lyso GM₁ [N-dichloroacetyl lyso GM1] | 70 | 73 | 77 | 44 | 55 | 64 | 47 | 50 | 55 | 30 | 49 | 50 | increased serum concentrations do not alter its modulating action on the CD₄ receptor | 75 | 74 | 47 | 13 | Mean fluorescence intensity (% of positive control) (CD₃; 2 μg/ml): 100 % of positive control; Mean fluorescence intensity (% of positive control) (CD₃; 5 μg/ml, 60 min): 100 % of positive control; Mean fluorescence intensity (% of positive control) (CD₃; 10 μg/ml, 60 min): 100 % of positive control; Mean fluorescence intensity (% of positive control) (CD₃; 25 μg/ml, 60 min): 100 % of positive control; Mean fluorescence intensity (% of positive control) (CD₃; 50 μg/ml): 100 % of positive control; Mean fluorescence intensity (% of positive control) (CD₄ [2]; 2 μg/ml): 100 % of positive control; Mean fluorescence intensity (% of positive control) (CD₄ [2]; 5 μg/ml): 60 % of positive control; Mean fluorescence intensity (% of positive control) (CD₄ [2]; 10 μg/ml): 28 % of positive control; Mean fluorescence intensity (% of positive control) (CD₄ [2]; 25 μg/ml): 0 % of positive control; Mean fluorescence intensity (% of positive control) (CD₄ [2]; 50 μg/ml): 0 % of positive control; selectivity of modulation, CD₄ receptor versus CD₃ receptor (CD₄ [2]; conclusion in words from Table 1, 2 to 50 μg/ml): selectively modulates the CD₄ receptor without altering the CD₃ receptor; IC50 (CD₄ [2]; minor lymphocytes, fluorescein-coupled Mab, MFI, read-out: 50% inhibition of the fluorescence (I₅₀)): 5 µM |
| monosialoganglioside GM₁ [GM1, reference compound] | 82 | 84 | 85 | 80 | 83 | 81 | 50 | 80 | 83 | 10 | 25 | 72 | this modulating action disappears in the presence of serum | 88 | 81 | 52 | 0 | – |
